Source: patent US9302999B2, “Substituted triazoles as herbicides” (E. I. DU PONT DE NEMOURS AND COMPANY, priority 2012, dated 2016)

How the values were obtained:
[1] = test system: Barnyardgrass; assay: Test C postemergence: barnyardgrass; format: in vivo, Echinochloa crus-galli
Source text: (§1) At the same time, plants selected from these crop and weed species and also barley (winter barley, Hordeum vulgare), canarygrass (Phalaris minor), chickweed (common chickweed, Stellaria media) windgrass (Apera spica-venti) and deadnettle (henbit deadnettle, Lamium amplexicaule) were planted in pots containing Redi-Earth® planting medium (Scotts Company, 14111 Scottslawn Road, Marysville, Ohio 43041) comprising spaghnum peat moss, vermiculite, wetting agent and starter nutrients and treated with postemergence applications of test chemicals formulated in the same manner. Plants ranged in height from 2 to 18 cm (1- to 4-leaf stage) for postemergence treatments.
(§2) Treated plants and controls were maintained in a greenhouse for 13 to 15 days, after which time all species were compared to controls and visually evaluated. Plant response ratings, summarized in Table C, are based on a scale of 0 to 100 where 0 is no effect and 100 is complete control. A dash (-) response means no test result.

[2] = test system: Barnyardgrass; assay: Test C postemergence: barnyardgrass; format: in vivo, Echinochloa crus-galli; conditions: 125 g ai/ha, scale 0 to 100, 0 no effect, 100 complete control
Source text: (§3) Seeds of plant species selected from blackgrass (Alopecurus myosuroides), bromegrass, downy (downy bromegrass, Bromus tectorum), foxtail, green (green foxtail, Setaria viridis), ryegrass, Italian (Italian ryegrass, Lolium multiflorum), winter wheat (Triticum aestivum), wild oat (Avena fatua), galium (catchweed bedstraw, Galium aparine), bermudagrass (Cynodon dactylon), surinam grass (Brachiaria decumbens), cocklebur (common cocklebur, Xanthium strumarium), corn (Zea mays), large crabgrass (Digitaria sanguinalis), woolly cupgrass (Eriochloa villosa), foxtail, giant (giant foxtail, Setaria faberii), goosegrass (Eleusine indica), johnsongrass (Sorghum halepense), kochia (Kochia scoparia), lambsquarters (Chenopodium album), morningglory (Ipomoea coccinea), nightshade (eastern black nightshade, Solanum ptycanthum), nutsedge, yellow (yellow nutsedge, Cyperus esculentus), pigweed (Amaranthus retroflexus), ragweed (common ragweed, Ambrosia elation), soybean (Glycine max), common (oilseed) sunflower (Helianthus annuus), Russian thistle (Salsola kali) and velvetleaf (Abutilon theophrasti) were planted into a blend of loam soil and sand and treated preemergence with test chemicals formulated in a non-phytotoxic solvent mixture which included a surfactant.
as §1, §2

[3] = test system: Oilseed Rape; assay: Test C postemergence: oilseed rape; format: in vivo
Source text: as §1, §2

[4] = test system: Oilseed Rape; assay: Test C postemergence: oilseed rape; format: in vivo, Brassica napus; conditions: 125 g ai/ha, scale 0 to 100, 0 no effect, 100 complete control
Source text: as §3, §1, §2

[5] = test system: barnyardgrass (Echinochloa crus-galli); assay: Test C pre-/postemergence: barnyardgrass; format: in vivo; conditions: Preemergence, 250 g ai/ha; scale 0 to 100, 0 no effect, 100 complete control
Source text: as §3, §1, §2

[6] = test system: Barnyardgrass; assay: Test C preemergence: barnyardgrass; format: in vivo, Echinochloa crus-galli
Source text: as §3, §2

[7] = test system: Oilseed Rape; assay: Test C preemergence: oilseed rape; format: in vivo; conditions: scale of 0 to 100, 0 is no effect, 100 is complete control
Source text: as §3, §2

[8] = test system: Waterhemp; assay: Test C pre-/postemergence: waterhemp; format: in vivo; conditions: Preemergence, 250 g ai/ha; scale 0 to 100, 0 no effect, 100 complete control
Source text: as §3, §1, §2

[9] = 31 g ai/ha, scale 0 to 100 (0 no effect, 100 complete control)
[10] = 62 g ai/ha, scale 0 to 100 (0 no effect, 100 complete control)
[11] = 31 g ai/ha, scale of 0 to 100, 0 is no effect, 100 is complete control
[12] = 62 g ai/ha, scale of 0 to 100, 0 is no effect, 100 is complete control
[13] = 125 g ai/ha, scale 0 to 100, 0 no effect, 100 complete control

SMILES | Plant response rating, Barnyardgrass [1, 9] | Plant response rating, Barnyardgrass [1, 10] | Plant response rating, Barnyardgrass ([1]; 250 g ai/ha, scale 0 to 100) | Plant response rating, Barnyardgrass [2] | Plant response rating, Oilseed Rape [3, 9] | Plant response rating, Oilseed Rape [3, 10] | Plant response rating, Oilseed Rape ([3]; 250 g ai/ha, scale 0 to 100) | Plant response rating, Oilseed Rape [4] | Plant response rating, Barnyardgrass [5] | Plant response rating, Barnyardgrass [6, 11] | Plant response rating, Barnyardgrass [6, 12] | Plant response rating, Barnyardgrass [6, 13] | Plant response rating, Oilseed Rape ([7]; 31 g ai/ha) | Plant response rating, Oilseed Rape ([7]; 62 g ai/ha) | Plant response rating, Waterhemp [8]
CCc1nn(-c2ccc(F)cc2)nc1Cc1ccnc(C(F)(F)F)c1 [Compound 154] | 15 | 25 | 40 | 25 | 80 | 90 | 95 | 95 | 100 | 45 | 90 | 90 | 5 | 90 | 100
CCc1nn(-c2ccc(C(F)(F)F)cc2)nc1Cc1ccnc(C(F)(F)F)c1 [Compound 155] | 25 | 35 | 75 | 55 | 90 | 90 | 95 | 95 | 100 | 40 | 90 | 98 | 50 | 90 | 100
Cc1nn(-c2ccc(F)c(C(F)(F)F)c2)nc1Cc1ccnc(C(F)(F)F)c1 [Compound 156] | 20 | 30 | 55 | 40 | 80 | 90 | 95 | 95 | 100 | 85 | 90 | 90 | 10 | 60 | 100
